Data on two compounds can be found in US11168052B2, “Carbamate derivative compounds, processes for preparing them and their uses” (BIO-PHARM SOLUTIONS CO., LTD., priority 2016, dated 2021).

Each structure is given as a SMILES string.

Assay [1] concerns CFA-induced pain model in rats. The assay is described as follows: Antiallodynic activity on Complete Freund's Adjuvant (CFA)-induced inflammatory pain model. The note with it: Rattus norvegicus, ip, 50 mg/kg intraperitoneally, von Frey threshold relative to sham, 0.5 hr after administration, read-out: Efficacy of 50 mg/kg(%). The assay is classed as in vivo, Sprague-Dawley rats. The method, boiled down:
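Male Sprague-Dawley rats given 100 ul CFA intraplantar in the right hind paw; one week later, ipsilateral mechanical allodynia (baseline threshold <4 g required) assessed with von Frey up-and-down method, 50% withdrawal threshold by Dixon formula. Compounds 50 mg/kg i.p. in 30% PEG or 20% Tween 80, tested 0.5 h post-dose; values as % of sham.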

The test system of assay [2] is PTZ (Pentylenetetrazol)-induced clonic seizure in rats. The assay can be described thus: Anti-epilepsy activity, scPTZ test in rats. The class given is in vivo, SD rats. The note with it: Rattus norvegicus, ip. The text has this:
In this experiment, each test compound sample was formulated as described in Biological Experimental Example 1, and administered intraperitoneally to the test animals (mice; ICR or Rat; SD); Experimental animals, male ICR mice and male SD rats, were purchased from OrientBio or Nara biotech, Korea, and housed 4-5 mice per a cage for 4-5 days. The range of mice body weight was used between 19 and 26 grams and range of rats body weight was used between 100 and 130 grams. After Peak time (0.5, 1, 2 and 4 hr) from the administration, PTZ (Pentylenetetrazol) was administered subcutaneously in the concentration capable of inducing 97% intermittent convulsions (mice: 100-110 mg/kg?bw, 10 μl/g, or rats: 90-110 mg/kg?bw, 2 μl/g). If clonic seizure was not observed for at least 30 minutes in the PTZ administered animal, it can be considered that the test compound has anti-epilepsy activity. The median effective dose (ED50) is determined using 6 animals per a concentration (total three different concentrations), and calculated by Litchfield and Wicoxon log-probit method which is a dose-response relationship.

Assay [3] relates to ICR mice, tail-flick analgesia meter. The assay can be described thus: Tail-flick test. The class given is in vivo. The note with it: orally, withdrawal latency. The method, then:
To examine the pain relief effect of the carbamate compounds, a tail-flick test was conducted, referring to Current Protocols in Neuroscience; Behavioral Neuroscience Unit 8.9.
ICR mice (male, 25-30g; Orient Bio, Korea) were habituated before test (in test room) for 1 hour. Animals were fasted 2 hr before administration of compounds. Each of Compound was orally administered at the 1-3 dose, 10 ul/g, by bodyweight (n=4-6/group). All compounds were dissolved in a vehicle of 30% (v/v) PEG 400 or 20% (v/v) Tween 80. The control group was treated the vehicle without compounds.
After the administration of compounds, the mice tail were put on a tail-flick analgesia meter. To avoid tissue damage, maximal exposure time to pain stimuli was restricted to 15 s. The withdrawal latency was measured to the time to the point when each mouse responded. The relative values compared to the control (% control) were calculated.
The relative values compared to the sham were calculated and shown in Table 7, which show effect of the compound of examples on tail-flick test in Mice.

In another assay the test system is ICR mice on hot plate. The assay is described as follows: Hot-plate test. The note with it: Mus musculus, po, orally, withdrawal latency. The assay is classed as in vivo. The method, then:
To examine the pain relief effect of the carbamate compounds, a hot-plate test was conducted in referring to Current Protocols in Neuroscience; Behavioral Neuroscience Unit 8.9.
ICR mice (male, 25-28 g; Orient Bio, Korea) were habituated before test (in test room) for 1 hour. Animals were fasted 2 hr before administration of compounds. Compounds were orally administered at the three dose, 10 ul/g, by bodyweight (n=4-6/group). All compounds were dissolved in a vehicle of 30% (v/v) PEG 400 or 20% (v/v) Tween 80. The control group was treated the vehicle without compounds.
0.25-2.0 hr after the administration of compounds, the mice were put on a hot plate pre-heated to 55±1 (Hu, X. et al, 2008), and then, the withdrawal latency time was measured (cut-off time: 30 sec) until the point when each mouse was taking a paw off from the plate, shaking, licking a paw or hind leg, or jumping from the plate.

With `NC(=O)O[C@@H]1CCc2cccc(Cl)c2[C@@H]1O` [Example 1, (1S, 2R)-8-chloro-1-hydroxy-1,2,3,4-tetrahydronaphthalen-2-yl carbamate], in assay [1], the response vs control in vivo at 50 mg/kg was determined as 74.9%. Moreover, the ED50 in assay [2] turned out to be 36.3 mg/kg; in the assay with ICR mice on hot plate, 101 mg/kg. In addition, the “Tail-flick test Dose” value in assay [3] is recorded as greater than 150 mg/kg.
In the same order, the values of `NC(=O)O[C@@H]1c2c(Cl)cccc2CC[C@@H]1O` [Example 19, (1R, 2S)-8-chloro-2-hydroxy-1,2,3,4-tetrahydronaphthalen-1-yl carbamate] are 51.6%, 50 mg/kg, greater than 100 mg/kg and greater than 200 mg/kg.
